Reference: US9879032B2, “Pyridine compounds” (Daiichi Sankyo Company, Limited, priority 2015, dated 2018)

Target: human TNAP (Homo sapiens (Human), UniProt P05186)
Experiment: Inhibitory test of TNAP activity (pNPP substrate, p-nitrophenol production)
Type: biochemical
Conditions: inhibition of human TNAP activity, incubated at room temperature for 60 minutes
Procedure: COS 1 cells (DS Pharma Biomedical Co., Ltd.) were transfected with human TNAP (OriGene Technologies, Inc.) using Lipofectamine LTX & Plus reagent (Invitrogen Corp.). On the next day, the medium was replaced with a fresh medium, and the cells were cultured in an incubator for 3 days. After 3 days, the culture supernatant was collected and concentrated by centrifugation at 5000 G for 30 minutes using Amicon 14, 10^4 cut (Merck Millipore). The concentrated culture supernatant was dialyzed against 5 L of 50 mM Tris/200 mM NaCl/1 mM MgCl2/20 μM ZnCl2 twice and used as an enzyme source (enzyme solution). The substrate pNPP (ProteoChem Inc.) was adjusted to 3.1 mM with Milli-Q water, and a solution of each test compound dissolved in dimethyl sulfoxide (DMSO; Wako Pure Chemical Industries, Ltd.) by 6 serial dilutions at a 5-fold common ratio from 100 μM, or DMSO was added thereto at a final concentration of 1% by volume. The enzyme solution adjusted to 2 μg/mL with an assay buffer (200 mM Tris/2 mM MgCl2/0.04 mM ZnCl2/0.01% Tween 20) was added in the same amount of the substrate solution and incubated at room temperature for 60 minutes. Then, the absorbance (ABS: 405 nm) was measured using a microplate reader (model plus 384, Molecular Devices, LLC), and the concentration of produced p-nitrophenol was calculated.

Sequence of human TNAP (P05186 18-502): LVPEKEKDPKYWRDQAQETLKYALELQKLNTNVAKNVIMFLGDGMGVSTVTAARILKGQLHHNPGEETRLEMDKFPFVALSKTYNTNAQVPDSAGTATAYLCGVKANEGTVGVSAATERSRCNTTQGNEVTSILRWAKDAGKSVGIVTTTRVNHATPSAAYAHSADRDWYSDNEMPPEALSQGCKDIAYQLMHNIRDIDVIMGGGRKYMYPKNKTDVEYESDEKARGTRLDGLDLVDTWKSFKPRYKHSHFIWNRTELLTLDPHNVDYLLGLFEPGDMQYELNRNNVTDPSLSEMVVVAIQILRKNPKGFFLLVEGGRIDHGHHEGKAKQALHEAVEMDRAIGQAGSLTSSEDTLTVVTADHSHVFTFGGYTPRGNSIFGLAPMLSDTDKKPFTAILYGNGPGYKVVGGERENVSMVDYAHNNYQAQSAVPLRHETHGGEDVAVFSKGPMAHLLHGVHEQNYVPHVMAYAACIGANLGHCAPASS

Compound	IC50 [nM]
COc1ccc(Cl)cc1S(=O)(=O)Nc1cnc2c(c1)C(=O)N(C)CCO2 [Example 1, 5-Chloro-2-methoxy-N-(4-methyl-5-oxo-2,3,4,5-tetrahydropyrido[3,2-f][1,4]oxazepin-7-yl)benzenesulfonamide]	6.3
COc1ccc(F)cc1S(=O)(=O)Nc1cnc2c(c1)C(=O)N(C)CCO2 [Example 2, 5-Fluoro-2-methoxy-N-(4-methyl-5-oxo-2,3,4,5-tetrahydropyrido[3,2-f][1,4]oxazepin-7-yl)benzenesulfonamide]	12.7
CCN1CCOc2ncc(NS(=O)(=O)c3cc(Cl)ccc3OC)cc2C1=O [Example 3, 5-Chloro-N-(4-ethyl-5-oxo-2,3,4,5-tetrahydropyrido[3,2-f][1,4]oxazepin-7-yl)-2-methoxybenzenesulfonamide]	12.8
COc1ccc(Cl)cc1S(=O)(=O)Nc1cnc2c(c1)C(=O)N(CCO)CCO2 [Example 6, 5-Chloro-N-[4-(2-hydroxyethyl)-5-oxo-2,3,4,5-tetrahydropyrido[3,2-f][1,4]oxazepin-7-yl]-2-methoxybenzenesulfonamide]	6.1
COc1ccc(Cl)cc1S(=O)(=O)Nc1cnc2c(c1)C(=O)NCCO2 [Example 9, 5-Chloro-2-methoxy-N-(5-oxo-2,3,4,5-tetrahydropyrido[3,2-f][1,4]oxazepin-7-yl)benzenesulfonamide]	1.4
COc1ccc(F)cc1S(=O)(=O)Nc1cnc2c(c1)C(=O)NCCO2 [Example 10, 5-Fluoro-2-methoxy-N-(5-oxo-2,3,4,5-tetrahydropyrido[3,2-f][1,4]oxazepin-7-yl)benzenesulfonamide]	4
O=C1NCCOc2ncc(NS(=O)(=O)c3cc(Cl)ccc3OC(F)(F)F)cc21 [Example 13, 5-Chloro-N-(5-oxo-2,3,4,5-tetrahydropyrido[3,2-f][1,4]oxazepin-7-yl)-2-(trifluoromethoxy)benzenesulfonamide]	3.4
COc1ccc(Cl)cc1S(=O)(=O)Nc1cnc2c(c1)C(=O)N(C)CC(C)O2 (centres unmarked) [Example 14, 5-Chloro-N-(2,4-dimethyl-5-oxo-2,3,4,5-tetrahydropyrido[3,2-f][1,4]oxazepin-7-yl)-2-methoxybenzenesulfonamide]	36.2
COc1ccc(F)cc1S(=O)(=O)Nc1cnc2c(c1)C(=O)N(C)CC(C)O2 (centres unmarked) [Example 15, N-(2,4-Dimethyl-5-oxo-2,3,4,5-tetrahydropyrido[3,2-f][1,4]oxazepin-7-yl)-5-fluoro-2-methoxybenzenesulfonamide]	95.7
COc1ccc(Cl)cc1S(=O)(=O)Nc1cnc2c(c1)C(=O)N(C)C(C)CO2 (centres unmarked) [Example 16, 5-Chloro-N-(3,4-dimethyl-5-oxo-2,3,4,5-tetrahydropyrido[3,2-f][1,4]oxazepin-7-yl)-2-methoxybenzenesulfonamide]	6.2
COc1ccc(F)cc1S(=O)(=O)Nc1cnc2c(c1)C(=O)N(C)C(C)CO2 (centres unmarked) [Example 17, N-(3,4-Dimethyl-5-oxo-2,3,4,5-tetrahydropyrido[3,2-f][1,4]oxazepin-7-yl)-5-fluoro-2-methoxybenzenesulfonamide]	12.6
COc1ccc(F)cc1S(=O)(=O)Nc1cnc2c(c1)C(=O)N(C)[C@H](C)CO2 [Example 21, N-[(3R)-3,4-Dimethyl-5-oxo-2,3,4,5-tetrahydropyrido[3,2-f][1,4]oxazepin-7-yl]-5-fluoro-2-methoxybenzenesulfonamide]	46
COc1ccc(F)cc1S(=O)(=O)Nc1cnc2c(c1)C(=O)N[C@@H](C)CO2 [Example 23, 5-Fluoro-2-methoxy-N-[(3S)-3-methyl-5-oxo-2,3,4,5-tetrahydropyrido[3,2-f][1,4]oxazepin-7-yl]benzenesulfonamide]	3.5
CC[C@H]1COc2ncc(NS(=O)(=O)c3cc(Cl)ccc3OC)cc2C(=O)N1 [Example 25, 5-Chloro-N-[(3S)-3-ethyl-5-oxo-2,3,4,5-tetrahydropyrido[3,2-f][1,4]oxazepin-7-yl]-2-methoxybenzenesulfonamide]	1.7
COc1ccc(Cl)cc1S(=O)(=O)Nc1cnc2c(c1)C(=O)N[C@@H](C(C)C)CO2 [Example 26, 5-Chloro-2-methoxy-N-[(3S)-5-oxo-3-(propan-2-yl)-2,3,4,5-tetrahydropyrido[3,2-f][1,4]oxazepin-7-yl]benzenesulfonamide]	8.7

The remaining compounds from weak to strong by IC50, led by results:

IC50 [nM]	Compound
71.3	COc1ccc(Cl)cc1S(=O)(=O)Nc1cnc2c(c1)C(=O)N(C(C)C)CCO2 [Example 5, 5-Chloro-2-methoxy-N-[5-oxo-4-(propan-2-yl)-2,3,4,5-tetrahydropyrido[3,2-f][1,4]oxazepin-7-yl]benzenesulfonamide]
27.1	COc1ccc(Cl)cc1S(=O)(=O)Nc1cnc2c(c1)C(=O)N(C)[C@H](C)CO2 [Example 20, 5-Chloro-N-[(3R)-3,4-dimethyl-5-oxo-2,3,4,5-tetrahydropyrido[3,2-f][1,4]oxazepin-7-yl]-2-methoxybenzenesulfonamide]
22.9	CCN1CCOc2ncc(NS(=O)(=O)c3cc(F)ccc3OC)cc2C1=O [Example 4, N-(4-Ethyl-5-oxo-2,3,4,5-tetrahydropyrido[3,2-f][1,4]oxazepin-7-yl)-5-fluoro-2-methoxybenzenesulfonamide]
13.4	COc1ccccc1S(=O)(=O)Nc1cnc2c(c1)C(=O)NCCO2 [Example 12, 2-Methoxy-N-(5-oxo-2,3,4,5-tetrahydropyrido[3,2-f][1,4]oxazepin-7-yl)benzenesulfonamide]
10.7	COCCN1CCOc2ncc(NS(=O)(=O)c3cc(Cl)ccc3OC)cc2C1=O [Example 7, 5-Chloro-2-methoxy-N-[4-(2-methoxyethyl)-5-oxo-2,3,4,5-tetrahydropyrido[3,2-f][1,4]oxazepin-7-yl]benzenesulfonamide]
9.1	COc1ccc(CN2CCOc3ncc(NS(=O)(=O)c4cc(Cl)ccc4OC)cc3C2=O)c(OC)c1 [Example 8, 5-Chloro-N-[4-(2,4-dimethoxybenzyl)-5-oxo-2,3,4,5-tetrahydropyrido[3,2-f][1,4]oxazepin-7-yl]-2-methoxybenzenesulfonamide]
7.2	CC[C@H]1COc2ncc(NS(=O)(=O)c3cc(Cl)ccc3OC)cc2C(=O)N1C [Example 24, 5-Chloro-N-[(3S)-3-ethyl-4-methyl-5-oxo-2,3,4,5-tetrahydropyrido[3,2-f][1,4]oxazepin-7-yl]-2-methoxybenzenesulfonamide]
6.4	COc1ccc(F)cc1S(=O)(=O)Nc1cnc2c(c1)C(=O)N(C)[C@@H](C)CO2 [Example 19, N-[(3S)-3,4-Dimethyl-5-oxo-2,3,4,5-tetrahydropyrido[3,2-f][1,4]oxazepin-7-yl]-5-fluoro-2-methoxybenzenesulfonamide]
4.8	COc1ccc(OC)c(S(=O)(=O)Nc2cnc3c(c2)C(=O)NCCO3)c1 [Example 11, 2,5-Dimethoxy-N-(5-oxo-2,3,4,5-tetrahydropyrido[3,2-f][1,4]oxazepin-7-yl)benzenesulfonamide]
3.9	COc1ccc(Cl)cc1S(=O)(=O)Nc1cnc2c(c1)C(=O)N(C)[C@@H](C)CO2 [Example 18, 5-Chloro-N-[(3S)-3,4-dimethyl-5-oxo-2,3,4,5-tetrahydropyrido[3,2-f][1,4]oxazepin-7-yl]-2-methoxybenzenesulfonamide]
1.7	COc1ccc(Cl)cc1S(=O)(=O)Nc1cnc2c(c1)C(=O)N[C@@H](C)CO2 [Example 22, 5-Chloro-2-methoxy-N-[(3S)-3-methyl-5-oxo-2,3,4,5-tetrahydropyrido[3,2-f][1,4]oxazepin-7-yl]benzenesulfonamide]
